Blank lines part the entries; values can stand above or below the molecule they belong to.
Key:
[1] = tested on: Wnt3a; test: Quantitative RT-PCR of Wnt3a expression during cardiac differentiation; assay type: cell-based, human; conditions: CHIR99021 6 μM day 0, 1.5 μM day 1; SB203580 and TA-01 5 μM
[2] = tested on: H1 cells; test: Monolayer cardiac differentiation, H1 cells; assay type: cell-based, human; conditions: days 3–5, day 13; for Cardiac differentiation in H1 cells: 5 μM; for NKX2‐5/cTnT‐positive cells: H1, 5 μM (IWR-1: 2.5 μM)
[3] = tested on: HES‐3 (NKX2‐5eGFP/w reporter cell line); assay type: cell-based, human; conditions: for Induction of cardiomyogenesis in HES-3 cells: 5 μM, days 3–5, day 13; for Percentage of NKX2‐5/GFP positive cells: HES-3, 5 μM (IWR-1: 2.5 μM), days 3–5, flow cytometry day 13, DMSO 14%
[4] = tested on: IMR‐90 cells; test: Monolayer cardiac differentiation, IMR-90 cells; assay type: cell-based, human; conditions: 5 μM (IWR-1: 2.5 μM), days 3–5, day 13
[5] = tested on: hPSCs; conditions: for Cell proliferation during neural differentiation: 5 and 10 μM, days 1 to 9, cell count day 9
[6] = tested on: HES‐3 (NKX2–5eGFP/w reporter cell line); conditions: 5 μM, days 3–5, image analysis on day 13
[7] = tested on: Wnt/β‐catenin pathway
[8] = tested on: BMPR1B kinase; conditions: percentage of control; cited from earlier work
[9] = biological target: T1, TGFBR2 (Homo sapiens, UniProt P37173); conditions: 1 μM compound
T1 sequence (P37173 23-567): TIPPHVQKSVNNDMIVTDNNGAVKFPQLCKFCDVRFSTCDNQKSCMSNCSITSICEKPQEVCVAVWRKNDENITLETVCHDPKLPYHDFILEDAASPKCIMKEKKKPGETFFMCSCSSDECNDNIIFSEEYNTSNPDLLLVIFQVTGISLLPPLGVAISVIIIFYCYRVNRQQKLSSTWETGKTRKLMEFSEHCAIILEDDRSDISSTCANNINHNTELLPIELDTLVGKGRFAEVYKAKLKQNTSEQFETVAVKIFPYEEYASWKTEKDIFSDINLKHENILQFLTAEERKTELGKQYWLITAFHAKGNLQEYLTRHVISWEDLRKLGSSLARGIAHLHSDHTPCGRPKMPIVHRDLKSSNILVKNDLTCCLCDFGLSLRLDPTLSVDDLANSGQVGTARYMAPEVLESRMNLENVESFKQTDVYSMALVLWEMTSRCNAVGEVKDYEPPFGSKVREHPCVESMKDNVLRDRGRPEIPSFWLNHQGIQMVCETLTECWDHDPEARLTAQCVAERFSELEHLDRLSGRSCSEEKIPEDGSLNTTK

[10] = tested on: NKX2‐5/GFP‐positive cells; conditions: added from days 4 to 8; cited from earlier work
[11] = Permeability test: mass retention to the artificial membrane; assay type: in vitro ADME
[12] = biological target: T1, TGFBR2; conditions: cited from earlier work
[13] = tested on: SMAD/GFP reporter cell line (TGFβ pathway); conditions: 5 μM, then TGFβ3 2, 100, 1000 ng/ml
[14] = biological target: T2, ALK5 (Homo sapiens, UniProt P36897); test: LanthaScreen Eu Kinase binding assay, ALK5; conditions: for IC50: read-out: ALK5 IC50 ± SEM, mean ± SEM, triplicate
T2 sequence (P36897 34-503): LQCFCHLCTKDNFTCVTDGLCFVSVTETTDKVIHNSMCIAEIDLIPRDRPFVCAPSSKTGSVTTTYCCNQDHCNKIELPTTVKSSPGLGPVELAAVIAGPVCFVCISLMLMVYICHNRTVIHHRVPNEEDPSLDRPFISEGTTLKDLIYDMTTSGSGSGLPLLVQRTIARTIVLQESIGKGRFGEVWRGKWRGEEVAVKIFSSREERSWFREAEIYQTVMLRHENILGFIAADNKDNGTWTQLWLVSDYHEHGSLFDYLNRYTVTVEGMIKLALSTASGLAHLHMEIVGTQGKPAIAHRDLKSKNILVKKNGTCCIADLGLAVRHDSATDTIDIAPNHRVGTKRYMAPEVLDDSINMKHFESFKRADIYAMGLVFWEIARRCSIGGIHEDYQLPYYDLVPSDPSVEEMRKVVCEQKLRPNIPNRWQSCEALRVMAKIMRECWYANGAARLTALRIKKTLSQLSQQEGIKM

[15] = tested on: SMAD2 phosphorylation (TGFβ pathway); conditions: 5 μM, day 3, 30 minutes to 8 hours

SMILES: Cc1c[nH]c(-c2cnc(NCCNc3ccc(C#N)cn3)nc2-c2ccc(Cl)cc2Cl)n1 [CHIR99021]
Suppression of Wnt3a expression on day 3 [1]: expression of Wnt3a was suppressed

SMILES: Cc1cccc(-c2[nH]ncc2-c2ccc(F)c(-c3cnn(CCO)c3)c2)n1 [Compound R268712]
Cardiac differentiation in H1 cells [2]: promoted cardiac differentiation | Induction of cardiomyogenesis in HES-3 cells [3]: failed to induce cardiomyogenesis | Cardiac differentiation in IMR-90 cells [4]: promoted cardiac differentiation

SMILES: CCOC(=O)C1=C(C)NC2=C(C(=O)CC(C)(C)C2)C1c1ccc(-c2ccccc2)cc1 (stereo not shown) [ITD‐1]
NKX2‐5/cTnT‐positive cells [2]: ~ 40% | Cell proliferation during neural differentiation [5]: inhibit cell proliferation | Percentage of NKX2‐5/GFP positive cells [3]: 25%

SMILES: Cc1ccc2nc(NC(=O)CSc3nc4c(c(=O)n3-c3ccccc3)SCC4)sc2c1 [IWP-2, reference compound]
NKX2-5/GFP expression of EBs compared with TA-01 [6]: higher GFP expression than the lead compound TA‐01

SMILES: O=C(Nc1cccc2cccnc12)c1ccc(N2C(=O)[C@@H]3[C@H](C2=O)[C@@H]2C=C[C@H]3C2)cc1 [IWR-1]
Axin 1 and 2 expression ([7]; 2.5 μM): upregulation | NKX2‐5/cTnT‐positive cells [2]: approximately 80% | Cardiac differentiation in IMR-90 cells [4]: did not increase

SMILES: Cc1cccc(-c2[nH]ncc2-c2ccc3ncccc3n2)n1 [RepSox]
Cardiac differentiation in H1 cells [2]: promoted cardiac differentiation | Induction of cardiomyogenesis in HES-3 cells [3]: failed to induce cardiomyogenesis | Cardiac differentiation in IMR-90 cells [4]: promoted cardiac differentiation

SMILES: C[S+]([O-])c1ccc(-c2nc(-c3ccncc3)c(-c3ccc(F)cc3)[nH]2)cc1 (stereo not shown) [SB203580]
Suppression of Wnt3a expression on day 3 [1]: not observed

SMILES: Fc1ccc(Cl)cc1-c1nc(Nc2ccncc2)c2nccnc2n1 [SD208]
Cardiac differentiation in H1 cells [2]: promoted cardiac differentiation | Induction of cardiomyogenesis in HES-3 cells [3]: failed to induce cardiomyogenesis | Cardiac differentiation in IMR-90 cells [4]: promoted cardiac differentiation

Percentage inhibition of TGFBR2 at 1 μM [9]: 91% | Permeability compared with IWR-1 and CHIR99021 [11]: less permeable
SMILES: Fc1ccc(-c2nc(-c3c(F)cccc3F)[nH]c2-c2ccncc2)cc1 [TA-01]
BMPR1B binding, POC at 10 μM [8]: 6.2 | Suppression of Wnt3a expression on day 3 [1]: not observed | Percentage of NKX2‐5/GFP positive cells [3]: 30%–40% | Increase in the percentage expression of NKX2‐5/GFP‐positive cells over DMSO [10]: threefold | TGFBR2 binding, percentage of control at 10 μM [12]: 1.6

SMILES: Fc1ccc(-c2nc(-c3ccccc3)[nH]c2-c2ccncc2)cc1 [TI-14, 4-(4(5)-(4-Fluorophenyl)-2-phenyl-1H-imidazol-5(4)-yl)pyridine]
NKX2-5/GFP expression of EBs compared with TA-01 [6]: higher GFP expression than the lead compound TA‐01

Percentage inhibition of TGFBR2 at 1 μM [9]: 80% | Potency in the inhibition of ALK5 relative to TA‐01 ([14]; ratio of IC50 values): approximately 10 times | Permeability compared with IWR-1 and CHIR99021 [11]: less permeable
SMILES: Fc1ccc(-c2nc(-c3c(Cl)cccc3Cl)[nH]c2-c2ccncc2)cc1 [TI-15, 4-(2-(2,6-Dichlorophenyl)-4(5)-(4-fluorophenyl)-1H-imidazol-5(4)-yl)pyridine]
Numbers of GFP‐positive cells (nuclear SMAD/GFP reporter) [13]: reduced | β‐catenin phosphorylation on Ser552/675 and downstream TCF‐1/LEF‐1 expression ([7]; 5 μM, day 3, 1, 4 and 8 hours after treatment): expression levels did not change | Cell growth during neural differentiation at 2.5 μM ([5]; 2.5 μM, days 1 to 9): not at the concentration of 2.5 μM | Cell proliferation during neural differentiation [5]: inhibit cell proliferation | Cell proliferation during cardiac differentiation, dosing days 2–5 ([3]; days 2–5, data not shown): inhibition of cell proliferation | Cell growth during cardiac differentiation, dosing days 3–5 ([3]; days 3–5): does not inhibit cell growth | NKX2-5/GFP expression of EBs compared with TA-01 [6]: higher GFP expression than the lead compound TA‐01 | Phosphorylation of SMAD2 protein at Ser 465/467 [15]: significantly reduced

SMILES: COc1ccccc1-c1nc(-c2ccc(F)cc2)c(-c2ccncc2)[nH]1 [TI-16, 4-(2-(2-Methoxyphenyl)-4(5)-(4-fluorophenyl)-1H-imidazol-5(4)-yl)pyridine]
NKX2-5/GFP expression of EBs compared with TA-01 [6]: higher GFP expression than the lead compound TA‐01

IC50 [14]: 747 nM
SMILES: COc1cccc(OC)c1-c1nc(-c2ccc(F)cc2)c(-c2ccncc2)[nH]1 [TI-18, 4-(2-(2,6-Dimethoxyphenyl)-4(5)-(4-fluorophenyl)-1H-imidazol-5(4)-yl)pyridine]

SMILES: COc1cccc(F)c1-c1nc(-c2ccc(F)cc2)c(-c2ccncc2)[nH]1 [TI-20, 4-(2-(2-Fluoro-6-methoxyphenyl)-4(5)-(4-fluorophenyl)-1H-imidazol-5(4)-yl)pyridine]
NKX2-5/GFP expression of EBs compared with TA-01 [6]: higher GFP expression than the lead compound TA‐01

IC50 [14]: 10.9 nM
SMILES: Fc1ccc(-c2nc(-c3c(F)cccc3Br)[nH]c2-c2ccncc2)cc1 [TI-21, 4-(2-(2-Bromo-6-fluorophenyl)-4(5)-(4-fluorophenyl)-1H-imidazol-5(4)-yl)pyridine]
NKX2-5/GFP expression of EBs compared with TA-01 [6]: higher GFP expression than the lead compound TA‐01

IC50 [14]: 13.1 nM
SMILES: O=[N+]([O-])c1cccc(Cl)c1-c1nc(-c2ccc(F)cc2)c(-c2ccncc2)[nH]1 [TI-24, 4-(2-(2-Chloro-6-nitrophenyl)-4(5)-(4-fluorophenyl)-1H-imidazol-5(4)-yl)pyridine]
NKX2-5/GFP expression of EBs compared with TA-01 [6]: higher GFP expression than the lead compound TA‐01

SMILES: COc1cc(O)c(-c2nc(-c3ccc(F)cc3)c(-c3ccncc3)[nH]2)c(OC)c1 [TI-25, 2-(4(5)-(4-Fluorophenyl)-5(4)-(pyridin-4-yl)-1H-imidazol-2-yl)-3,5-dimethoxyphenol]
NKX2-5/GFP expression of EBs compared with TA-01 [6]: higher GFP expression than the lead compound TA‐01

SMILES: O=[N+]([O-])c1ccccc1-c1nc(-c2ccc(F)cc2)c(-c2ccncc2)[nH]1 [TI-26, 4-(4(5)-(4-Fluorophenyl)-2-(2-nitrophenyl)-1H-imidazol-5(4)-yl)pyridine]
NKX2-5/GFP expression of EBs compared with TA-01 [6]: higher GFP expression than the lead compound TA‐01

SMILES: Cc1cccc(C)c1-c1nc(-c2ccc(F)cc2)c(-c2ccncc2)[nH]1 [TI-27, 4-(2-(2,6-Dimethylphenyl)-4(5)-(4-fluorophenyl)-1H-imidazol-5(4)-yl)pyridine]
NKX2-5/GFP expression of EBs compared with TA-01 [6]: higher GFP expression than the lead compound TA‐01

IC50 [14]: 22.1 nM
SMILES: Fc1ccc(-c2nc(-c3c(F)cccc3I)[nH]c2-c2ccncc2)cc1 [TI-29, 4-(2-(2-Fluoro-6-iodophenyl)-4(5)-(4-fluorophenyl)-1H-imidazol-5(4)-yl)pyridine]

SMILES: Fc1ccc(-c2nc(-c3ccc4ccccc4c3Br)[nH]c2-c2ccncc2)cc1 [TI-33, 4-(2-(1-Bromonaphthalen-2-yl)-4(5)-(4-fluorophenyl)-1H-imidazol-5(4)-yl)pyridine]
NKX2-5/GFP expression of EBs compared with TA-01 [6]: higher GFP expression than the lead compound TA‐01

Percentage inhibition of TGFBR2 at 1 μM [9]: 81%
SMILES: Fc1ccc(-c2nc(C3CCCCC3)[nH]c2-c2ccncc2)cc1 [TI-34, 4-(2-Cyclohexyl-4(5)-(4-fluorophenyl)-1H-imidazol-5(4)-yl)pyridine]

SMILES: Fc1ccc(-c2c(-c3ccncc3)ncn2-c2ccccc2)cc1 [TI-38, 4-(5-(4-Fluorophenyl)-1-phenyl-1H-imidazol-4-yl)pyridine]
Cell proliferation during neural differentiation [5]: inhibit cell proliferation

Permeability compared with IWR-1 and CHIR99021 [11]: less permeable
SMILES: Fc1ccc(-c2nc(-c3ccc4ccccc4c3F)[nH]c2-c2ccncc2)cc1 [TI-42, 4-(2-(1-Fluoronaphthalen-2-yl)-4(5)-(4-fluorophenyl)-1H-imidazol-5(4)-yl)pyridine]
